# Source: PubChem BioAssay (NCI)
#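 Each compound was tested at five concentrations against cells in 96-well plates for 48 hours. The concentration for full growth arrest is given as TGI.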
# Assays:
# Assay in all cases: NCI tumour cell line growth inhibition, 48 h
# [1] = tested on: BT-549 breast
# [2] = tested on: U251 CNS
# [3] = tested on: M14 melanoma
# [4] = tested on: SF-268 CNS
# [5] = tested on: HCC-2998 colon
# [6] = tested on: MOLT-4 leukemia
# [7] = tested on: OVCAR-5 ovarian
# [8] = tested on: MCF7 breast
# [9] = tested on: LOX IMVI melanoma
# [10] = tested on: PC-3 prostate
# [11] = tested on: 786-0 renal
# [12] = tested on: COLO 205 colon
# [13] = tested on: NCI-H226 lung
# [14] = tested on: SF-295 CNS
# [15] = tested on: SF-539 CNS
# [16] = tested on: ACHN renal
# [17] = tested on: SNB-75 CNS
# [18] = tested on: UO-31 renal
# [19] = tested on: HOP-62 NSCLC
# [20] = tested on: NCI-H460 lung
# [21] = tested on: UACC-257 melanoma
# [22] = tested on: HL-60(TB) leukemia
# [23] = tested on: A549 NSCLC
# [24] = tested on: K-562 leukemia
# [25] = tested on: RPMI-8226 leukemia
# [26] = tested on: SW-620 colon
# [27] = tested on: TK-10 renal
# [28] = tested on: KM12 colon
# [29] = tested on: MDA-N
# [30] = tested on: NCI-H23 lung
# [31] = tested on: SK-OV-3 ovarian
# [32] = tested on: DU-145 prostate
# [33] = tested on: OVCAR-3 ovarian
# [34] = tested on: UACC-62 melanoma
# [35] = tested on: OVCAR-4 ovarian
# [36] = tested on: SNB-19 CNS
# [37] = tested on: CAKI-1 renal
# [38] = tested on: HOP-92 NSCLC
# [39] = tested on: MDA-MB-435
# [40] = tested on: HS 578T breast
# [41] = tested on: OVCAR-8 ovarian
# [42] = tested on: IGROV1 ovarian
# [43] = tested on: RXF 393 renal
# [44] = tested on: CCRF-CEM leukemia
# [45] = tested on: EKVX NSCLC
# [46] = tested on: HCT-15 colon
# [47] = tested on: NCI-H522 lung
# [48] = tested on: SK-MEL-2 melanoma
# [49] = tested on: HCT-116 colon
# [50] = tested on: MDA-MB-231 breast
# [51] = tested on: SN12C renal
# [52] = tested on: NCI/ADR-RES ovarian
# [53] = tested on: A498 renal
# [54] = tested on: T-47D breast
# [55] = tested on: HT29 colon
structure (smiles),measurement,setting,value
CC1(C)CC(=O)C(/C=N/c2nc(-c3cccc([N+](=O)[O-])c3)cs2)=C(O)C1,TGI,[1],54 µM
same,TGI,[2],46.4 µM
same,TGI,[3],38.2 µM
same,TGI,[4],44.1 µM
same,TGI,[5],29.1 µM
same,TGI,[6],> 100 µM
same,TGI,[7],> 100 µM
same,TGI,[8],34 µM
same,TGI,[9],27.2 µM
same,TGI,[10],> 100 µM
same,TGI,[11],29.9 µM
same,TGI,[12],30.9 µM
same,TGI,[13],36.5 µM
same,TGI,[14],> 100 µM
same,TGI,[15],45.6 µM
same,TGI,[16],33.8 µM
same,TGI,[17],59.9 µM
same,TGI,[18],74.9 µM
same,TGI,[19],57.9 µM
same,TGI,[20],27.8 µM
same,TGI,[21],49.7 µM
same,TGI,[22],> 100 µM
same,TGI,[23],> 100 µM
same,TGI,[24],52.6 µM
same,TGI,[25],43.9 µM
same,TGI,[26],25.6 µM
same,TGI,[27],92.5 µM
same,TGI,[28],> 100 µM
same,TGI,[29],36.5 µM
same,TGI,[30],37.3 µM
same,TGI,[31],> 100 µM
same,TGI,[32],> 100 µM
same,TGI,[33],> 100 µM
same,TGI,[34],42.2 µM
same,TGI,[35],> 100 µM
same,TGI,[36],46.9 µM
same,TGI,[37],23.4 µM
same,TGI,[38],39.6 µM
same,TGI,[39],60.7 µM
same,TGI,[40],62.4 µM
same,TGI,[41],96.2 µM
same,TGI,[42],44.7 µM
same,TGI,[43],46.9 µM
same,TGI,[44],5.69 µM
same,TGI,[45],46.6 µM
same,TGI,[46],23.8 µM
same,TGI,[47],23.7 µM
same,TGI,[48],> 100 µM
same,TGI,[49],28.1 µM
same,TGI,[50],43 µM
same,TGI,[51],37.6 µM
same,TGI,[52],39.2 µM
same,TGI,[53],30.5 µM
same,TGI,[54],37.3 µM
same,TGI,[55],30.7 µM
